Laboratory results as given in publication PMC12586182 (Frontiers in Oncology, 2025).

Columns and labels:
[1] = target: biotinylated, inactive MEK1 (Homo sapiens, UniProt Q02750); assay: Surface plasmon resonance binding (Biacore 1S+); conditions: SPR
activated B-RAF = activated B-RAF (Homo sapiens, UniProt P15056); assay: Surface plasmon resonance binding (Biacore 1S+); conditions: SPR, B-RAF
activated B-RAF, sequence (P15056 whole entry): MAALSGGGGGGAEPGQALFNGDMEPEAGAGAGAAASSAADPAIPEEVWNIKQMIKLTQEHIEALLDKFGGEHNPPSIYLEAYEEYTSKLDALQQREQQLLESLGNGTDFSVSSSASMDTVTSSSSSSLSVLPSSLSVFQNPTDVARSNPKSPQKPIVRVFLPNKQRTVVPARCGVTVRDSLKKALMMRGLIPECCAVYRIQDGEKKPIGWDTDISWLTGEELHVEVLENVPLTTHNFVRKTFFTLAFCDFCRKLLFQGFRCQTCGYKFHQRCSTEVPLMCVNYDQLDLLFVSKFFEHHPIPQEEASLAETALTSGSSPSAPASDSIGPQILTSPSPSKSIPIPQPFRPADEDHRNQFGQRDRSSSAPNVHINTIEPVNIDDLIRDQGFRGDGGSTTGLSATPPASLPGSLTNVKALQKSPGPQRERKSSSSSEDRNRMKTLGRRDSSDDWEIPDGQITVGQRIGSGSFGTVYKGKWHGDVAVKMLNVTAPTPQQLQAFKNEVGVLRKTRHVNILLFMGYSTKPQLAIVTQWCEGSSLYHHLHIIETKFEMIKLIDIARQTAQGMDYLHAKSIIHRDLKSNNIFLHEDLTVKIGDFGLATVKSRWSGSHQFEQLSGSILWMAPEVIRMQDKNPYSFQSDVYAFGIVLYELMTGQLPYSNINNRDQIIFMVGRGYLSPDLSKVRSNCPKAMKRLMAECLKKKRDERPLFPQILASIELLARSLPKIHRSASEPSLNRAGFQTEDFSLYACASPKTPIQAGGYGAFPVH

biotinylated, inactive MEK1, sequence (Q02750 whole entry): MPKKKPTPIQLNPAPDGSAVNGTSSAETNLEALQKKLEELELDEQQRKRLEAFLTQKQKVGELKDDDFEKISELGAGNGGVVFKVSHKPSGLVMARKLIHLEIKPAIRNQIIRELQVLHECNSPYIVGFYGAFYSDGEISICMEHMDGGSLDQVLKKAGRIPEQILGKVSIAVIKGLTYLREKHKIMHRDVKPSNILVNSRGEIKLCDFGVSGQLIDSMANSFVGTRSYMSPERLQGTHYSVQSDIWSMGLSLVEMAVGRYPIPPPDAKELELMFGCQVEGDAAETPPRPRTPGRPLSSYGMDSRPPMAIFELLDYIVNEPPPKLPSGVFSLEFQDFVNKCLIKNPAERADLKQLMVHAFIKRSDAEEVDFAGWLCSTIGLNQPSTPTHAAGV

Row | Compound | log (kd) [1] | log(ka) [1] | t1/2 [1] [h] | log (kd) (activated B-RAF) | log(ka) (activated B-RAF) | t1/2 (activated B-RAF) [h]
1 | CC(=O)Nc1cccc(-n2c(=O)n(C3CC3)c(=O)c3c(Nc4ccc(I)cc4F)n(C)c(=O)c(C)c32)c1 [trametinib] | -3.87 | 5.34 | 1.428 |  |  | 
2 | COC(=O)N[C@@H](C)CNc1nccc(-c2cn(C(C)C)nc2-c2cc(Cl)cc(NS(C)(=O)=O)c2F)n1 [encorafenib] |  |  |  | -4.40 | 5.36 | 4.8056
